Reference: PubChem BioAssay (NCI)
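Five concentrations, 48 hours, 96-well plates. GI50: concentration for 50% inhibition of growth. TGI denotes the concentration required for complete inhibition of growth.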

system: SK-MEL-2 melanoma; experiment: NCI tumour cell line growth inhibition, 48 h

In the case of `CCC(CO)Nc1nc2ccc(Cl)cc2c2ccccc12` (stereo not drawn), the GI50 is reported as 14.5 µM.

`CCC(CO)Nc1nc2ccc(Cl)cc2c2ccccc12` (stereo not drawn) and `FC(F)(F)c1cc(Cl)cnc1N/N=C(/c1ccccc1)c1ccccn1` are within 1.5-fold of each other in TGI: 28.4 µM for the first, 20.1 µM for the second.

system: OVCAR-8 ovarian; experiment: NCI tumour cell line growth inhibition, 48 h

Compared with `O=[N+]([O-])/C(C(Cl)=C(Cl)Cl)=C(\SCc1ccccc1)N1CCCCC1`, `CCCN=C1CCN(Cc2ccccc2)c2ccccc2N1` is 1.7-fold lower in TGI: 54.5 µM for the first, 32.6 µM for the second.

Compared with `O=C1CC(c2ccc3c(c2)OCO3)Nc2ccccc21` (stereo not drawn), `CCC(CO)Nc1nc2ccc(Cl)cc2c2ccccc12` (stereo not drawn) is 2.2-fold lower in TGI: 63.3 µM for the first, 29.3 µM for the second.

For `FC(F)(F)c1cc(Cl)cnc1N/N=C(/c1ccccc1)c1ccccn1`, the TGI was 5.06 µM.

`O=C1CC(c2ccc3c(c2)OCO3)Nc2ccccc21` (stereo not drawn) and `CCC(CO)Nc1nc2ccc(Cl)cc2c2ccccc12` (stereo not drawn) are within 1.5-fold of each other in GI50: 14.4 µM for the first, 11.4 µM for the second.

system: HOP-92 NSCLC; experiment: NCI tumour cell line growth inhibition, 48 h

Compared with `O=[N+]([O-])/C(C(Cl)=C(Cl)Cl)=C(\SCc1ccccc1)N1CCCCC1`, `O=C1CC(c2ccc3c(c2)OCO3)Nc2ccccc21` (stereo not drawn) is 61-fold higher in TGI: 0.529 µM for the first, 32.3 µM for the second.

`CCC(CO)Nc1nc2ccc(Cl)cc2c2ccccc12` (stereo not drawn) and `FC(F)(F)c1cc(Cl)cnc1N/N=C(/c1ccccc1)c1ccccn1` are within 1.5-fold of each other in TGI: 14.8 µM for the first, 16.3 µM for the second.

First: O=C1CC(c2ccc3c(c2)OCO3)Nc2ccccc21 (stereo not drawn)
Second: CCC(CO)Nc1nc2ccc(Cl)cc2c2ccccc12 (stereo not drawn)
The GI50 of the first is 1.6-fold higher: 4.96 µM for the first, 3.06 µM for the second.

system: ACHN renal; experiment: NCI tumour cell line growth inhibition, 48 h

Going from `O=[N+]([O-])/C(C(Cl)=C(Cl)Cl)=C(\SCc1ccccc1)N1CCCCC1` to `CCCN=C1CCN(Cc2ccccc2)c2ccccc2N1`, the TGI rises from 37.6 µM to 94.1 µM (2.5-fold).

First: O=C1CC(c2ccc3c(c2)OCO3)Nc2ccccc21 (stereo not drawn)
Second: CCC(CO)Nc1nc2ccc(Cl)cc2c2ccccc12 (stereo not drawn)
The TGI of the first is higher: over 87.4 µM for the first, 21.1 µM for the second.

`FC(F)(F)c1cc(Cl)cnc1N/N=C(/c1ccccc1)c1ccccn1` gave a TGI of 11.8 µM.

`O=C1CC(c2ccc3c(c2)OCO3)Nc2ccccc21` (stereo not drawn) and `CCC(CO)Nc1nc2ccc(Cl)cc2c2ccccc12` (stereo not drawn) are within 1.5-fold of each other in GI50: 7.22 µM for the first, 9.05 µM for the second.

system: SW-620 colon; experiment: NCI tumour cell line growth inhibition, 48 h

First: CCCN=C1CCN(Cc2ccccc2)c2ccccc2N1
Second: O=C1CC(c2ccc3c(c2)OCO3)Nc2ccccc21 (stereo not drawn)
The TGI of the first is higher: over 100 µM for the first, 23.1 µM for the second.

Going from `CCC(CO)Nc1nc2ccc(Cl)cc2c2ccccc12` (stereo not drawn) to `FC(F)(F)c1cc(Cl)cnc1N/N=C(/c1ccccc1)c1ccccn1`, the TGI rises from 26.9 µM to over 100 µM.

First: O=C1CC(c2ccc3c(c2)OCO3)Nc2ccccc21 (stereo not drawn)
Second: CCC(CO)Nc1nc2ccc(Cl)cc2c2ccccc12 (stereo not drawn)
The GI50 of the first is 2-fold lower: 6.61 µM for the first, 13.5 µM for the second.

system: SN12C renal; experiment: NCI tumour cell line growth inhibition, 48 h

First: O=[N+]([O-])/C(C(Cl)=C(Cl)Cl)=C(\SCc1ccccc1)N1CCCCC1
Second: CCCN=C1CCN(Cc2ccccc2)c2ccccc2N1
The TGI of the first is lower: 47.6 µM for the first, over 100 µM for the second.

`O=C1CC(c2ccc3c(c2)OCO3)Nc2ccccc21` (stereo not drawn) and `CCC(CO)Nc1nc2ccc(Cl)cc2c2ccccc12` (stereo not drawn) are within 1.5-fold of each other in TGI: 23 µM for the first, 25.3 µM for the second.

Work on `FC(F)(F)c1cc(Cl)cnc1N/N=C(/c1ccccc1)c1ccccn1` yielded a TGI of over 100 µM.

First: O=C1CC(c2ccc3c(c2)OCO3)Nc2ccccc21 (stereo not drawn)
Second: CCC(CO)Nc1nc2ccc(Cl)cc2c2ccccc12 (stereo not drawn)
The GI50 of the first is 1.8-fold lower: 6.28 µM for the first, 11.5 µM for the second.

system: HCT-15 colon; experiment: NCI tumour cell line growth inhibition, 48 h

`O=[N+]([O-])/C(C(Cl)=C(Cl)Cl)=C(\SCc1ccccc1)N1CCCCC1` and `CCCN=C1CCN(Cc2ccccc2)c2ccccc2N1` are within 1.5-fold of each other in TGI: 49.7 µM for the first, 51.7 µM for the second.

Going from `O=C1CC(c2ccc3c(c2)OCO3)Nc2ccccc21` (stereo not drawn) to `CCC(CO)Nc1nc2ccc(Cl)cc2c2ccccc12` (stereo not drawn), the TGI falls from 31 µM to 15.4 µM (2-fold).

In the case of `FC(F)(F)c1cc(Cl)cnc1N/N=C(/c1ccccc1)c1ccccn1`, the TGI is reported as over 100 µM.

Going from `O=C1CC(c2ccc3c(c2)OCO3)Nc2ccccc21` (stereo not drawn) to `CCC(CO)Nc1nc2ccc(Cl)cc2c2ccccc12` (stereo not drawn), the GI50 falls from 5.61 µM to 3.7 µM (1.5-fold).

system: SF-268 CNS; experiment: NCI tumour cell line growth inhibition, 48 h

Going from `O=[N+]([O-])/C(C(Cl)=C(Cl)Cl)=C(\SCc1ccccc1)N1CCCCC1` to `CCCN=C1CCN(Cc2ccccc2)c2ccccc2N1`, the TGI falls from 74.3 µM to 36.8 µM (2-fold).

First: O=C1CC(c2ccc3c(c2)OCO3)Nc2ccccc21 (stereo not drawn)
Second: CCC(CO)Nc1nc2ccc(Cl)cc2c2ccccc12 (stereo not drawn)
The TGI of the first is 1.5-fold higher: 35.6 µM for the first, 23.4 µM for the second.

`FC(F)(F)c1cc(Cl)cnc1N/N=C(/c1ccccc1)c1ccccn1` showed a TGI of 11.3 µM.

`O=C1CC(c2ccc3c(c2)OCO3)Nc2ccccc21` (stereo not drawn) and `CCC(CO)Nc1nc2ccc(Cl)cc2c2ccccc12` (stereo not drawn) are within 1.5-fold of each other in GI50: 10.4 µM for the first, 10.7 µM for the second.

system: MCF7 breast; experiment: NCI tumour cell line growth inhibition, 48 h

`O=[N+]([O-])/C(C(Cl)=C(Cl)Cl)=C(\SCc1ccccc1)N1CCCCC1` and `O=C1CC(c2ccc3c(c2)OCO3)Nc2ccccc21` (stereo not drawn) are within 1.5-fold of each other in TGI: 32.2 µM for the first, 36.7 µM for the second.

Compared with `CCC(CO)Nc1nc2ccc(Cl)cc2c2ccccc12` (stereo not drawn), `FC(F)(F)c1cc(Cl)cnc1N/N=C(/c1ccccc1)c1ccccn1` is 1.5-fold lower in TGI: 26.1 µM for the first, 17 µM for the second.

Going from `O=C1CC(c2ccc3c(c2)OCO3)Nc2ccccc21` (stereo not drawn) to `CCC(CO)Nc1nc2ccc(Cl)cc2c2ccccc12` (stereo not drawn), the GI50 rises from 4.96 µM to 12.2 µM (2.5-fold).

system: PC-3 prostate; experiment: NCI tumour cell line growth inhibition, 48 h

`O=[N+]([O-])/C(C(Cl)=C(Cl)Cl)=C(\SCc1ccccc1)N1CCCCC1` and `CCCN=C1CCN(Cc2ccccc2)c2ccccc2N1` are within 1.5-fold of each other in TGI: 74.8 µM for the first, 59.9 µM for the second.

`O=C1CC(c2ccc3c(c2)OCO3)Nc2ccccc21` (stereo not drawn) and `CCC(CO)Nc1nc2ccc(Cl)cc2c2ccccc12` (stereo not drawn) are within 1.5-fold of each other in TGI: 36.6 µM for the first, 24.9 µM for the second.

`FC(F)(F)c1cc(Cl)cnc1N/N=C(/c1ccccc1)c1ccccn1` showed a TGI of 89.7 µM.

Going from `O=C1CC(c2ccc3c(c2)OCO3)Nc2ccccc21` (stereo not drawn) to `CCC(CO)Nc1nc2ccc(Cl)cc2c2ccccc12` (stereo not drawn), the GI50 rises from 3.83 µM to 10.3 µM (2.7-fold).

system: RPMI-8226 leukemia; experiment: NCI tumour cell line growth inhibition, 48 h

Compared with `O=[N+]([O-])/C(C(Cl)=C(Cl)Cl)=C(\SCc1ccccc1)N1CCCCC1`, `CCCN=C1CCN(Cc2ccccc2)c2ccccc2N1` is 3.2-fold lower in TGI: 92.9 µM for the first, 28.9 µM for the second.

Compared with `O=C1CC(c2ccc3c(c2)OCO3)Nc2ccccc21` (stereo not drawn), `CCC(CO)Nc1nc2ccc(Cl)cc2c2ccccc12` (stereo not drawn) is 2-fold higher in TGI: 13.3 µM for the first, 26.4 µM for the second.

With `FC(F)(F)c1cc(Cl)cnc1N/N=C(/c1ccccc1)c1ccccn1` the TGI was over 100 µM.

`O=C1CC(c2ccc3c(c2)OCO3)Nc2ccccc21` (stereo not drawn) and `CCC(CO)Nc1nc2ccc(Cl)cc2c2ccccc12` (stereo not drawn) are within 1.5-fold of each other in GI50: 3.05 µM for the first, 4.04 µM for the second.

system: U251 CNS; experiment: NCI tumour cell line growth inhibition, 48 h

First: O=[N+]([O-])/C(C(Cl)=C(Cl)Cl)=C(\SCc1ccccc1)N1CCCCC1
Second: CCCN=C1CCN(Cc2ccccc2)c2ccccc2N1
The TGI of the first is higher: over 100 µM for the first, 43.6 µM for the second.

`O=C1CC(c2ccc3c(c2)OCO3)Nc2ccccc21` (stereo not drawn) and `CCC(CO)Nc1nc2ccc(Cl)cc2c2ccccc12` (stereo not drawn) are within 1.5-fold of each other in TGI: 24.7 µM for the first, 18.3 µM for the second.

In the case of `FC(F)(F)c1cc(Cl)cnc1N/N=C(/c1ccccc1)c1ccccn1`, the TGI is reported as 41.3 µM.

First: O=C1CC(c2ccc3c(c2)OCO3)Nc2ccccc21 (stereo not drawn)
Second: CCC(CO)Nc1nc2ccc(Cl)cc2c2ccccc12 (stereo not drawn)
The GI50 of the first is 1.6-fold higher: 8.46 µM for the first, 5.18 µM for the second.

system: COLO 205 colon; experiment: NCI tumour cell line growth inhibition, 48 h

Compared with `O=[N+]([O-])/C(C(Cl)=C(Cl)Cl)=C(\SCc1ccccc1)N1CCCCC1`, `CCCN=C1CCN(Cc2ccccc2)c2ccccc2N1` is 1.5-fold lower in TGI: 34.8 µM for the first, 22.9 µM for the second.

`O=C1CC(c2ccc3c(c2)OCO3)Nc2ccccc21` (stereo not drawn) and `CCC(CO)Nc1nc2ccc(Cl)cc2c2ccccc12` (stereo not drawn) are within 1.5-fold of each other in TGI: 37.2 µM for the first, 25.6 µM for the second.

Compound `FC(F)(F)c1cc(Cl)cnc1N/N=C(/c1ccccc1)c1ccccn1` has a TGI of over 100 µM.

`O=C1CC(c2ccc3c(c2)OCO3)Nc2ccccc21` (stereo not drawn) and `CCC(CO)Nc1nc2ccc(Cl)cc2c2ccccc12` (stereo not drawn) are within 1.5-fold of each other in GI50: 16.5 µM for the first, 11.9 µM for the second.

system: SK-MEL-5 melanoma; experiment: NCI tumour cell line growth inhibition, 48 h

`O=[N+]([O-])/C(C(Cl)=C(Cl)Cl)=C(\SCc1ccccc1)N1CCCCC1` and `CCCN=C1CCN(Cc2ccccc2)c2ccccc2N1` are within 1.5-fold of each other in TGI: 31.4 µM for the first, 28.2 µM for the second.

`O=C1CC(c2ccc3c(c2)OCO3)Nc2ccccc21` (stereo not drawn) and `CCC(CO)Nc1nc2ccc(Cl)cc2c2ccccc12` (stereo not drawn) are within 1.5-fold of each other in TGI: 25.8 µM for the first, 23.3 µM for the second.

Work on `FC(F)(F)c1cc(Cl)cnc1N/N=C(/c1ccccc1)c1ccccn1` yielded a TGI of over 100 µM.

`O=C1CC(c2ccc3c(c2)OCO3)Nc2ccccc21` (stereo not drawn) and `CCC(CO)Nc1nc2ccc(Cl)cc2c2ccccc12` (stereo not drawn) are within 1.5-fold of each other in GI50: 12.6 µM for the first, 11.2 µM for the second.

system: OVCAR-5 ovarian; experiment: NCI tumour cell line growth inhibition, 48 h

Compared with `O=[N+]([O-])/C(C(Cl)=C(Cl)Cl)=C(\SCc1ccccc1)N1CCCCC1`, `CCCN=C1CCN(Cc2ccccc2)c2ccccc2N1` is higher in TGI: 43.9 µM for the first, over 100 µM for the second.

First: O=C1CC(c2ccc3c(c2)OCO3)Nc2ccccc21 (stereo not drawn)
Second: CCC(CO)Nc1nc2ccc(Cl)cc2c2ccccc12 (stereo not drawn)
The TGI of the first is higher: over 55.4 µM for the first, 19.7 µM for the second.

`FC(F)(F)c1cc(Cl)cnc1N/N=C(/c1ccccc1)c1ccccn1` was tested, and the TGI was 33.4 µM.

First: O=C1CC(c2ccc3c(c2)OCO3)Nc2ccccc21 (stereo not drawn)
Second: CCC(CO)Nc1nc2ccc(Cl)cc2c2ccccc12 (stereo not drawn)
The GI50 of the first is 2.1-fold higher: 11.1 µM for the first, 5.4 µM for the second.
